From ChEMBL document CHEMBL1201861, “Genomics of Drug Sensitity in Cancer screening data, Wellcome Trust Sanger Institute”
pIC50: −log10 of the molar value.

What was measured:
Experiment in all cases: cells
Conditions in all cases: Homo sapiens
HCC1187 = assay type: functional, cell-based;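 note: growth inhibition of HCC1187 cells, read out with a cell viability assay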
Description: SANGER: Inhibition of human HCC1187 cell growth in a cell viability assay.

GAK = assay type: functional, cell-based;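 note: cell growth inhibition read out by a cell viability assay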
Description: SANGER: Inhibition of human GAK cell growth in a cell viability assay.

OS-RC-2 = assay type: functional, cell-based;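 note: growth inhibition of human OS-RC-2 cells, measured by a cell viability assay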
Description: SANGER: Inhibition of human OS-RC-2 cell growth in a cell viability assay.

MC116 = assay type: functional, cell-based;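 note: growth inhibition of MC116 cells, read out with a cell viability assay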
Description: SANGER: Inhibition of human MC116 cell growth in a cell viability assay.

CTV-1 = assay type: functional, cell-based;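 note: growth inhibition of the cell line, read out with a cell viability assay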
Description: SANGER: Inhibition of human CTV-1 cell growth in a cell viability assay.

KALS-1 = assay type: functional, cell-based;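 note: growth inhibition of KALS-1 cells, determined with a cell viability assay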
Description: SANGER: Inhibition of human KALS-1 cell growth in a cell viability assay.

NCI-H720 = assay type: functional, cell-based;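 note: growth inhibition of human NCI-H720 cells determined by a cell viability assay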
Description: SANGER: Inhibition of human NCI-H720 cell growth in a cell viability assay.

NCI-H1770 = assay type: functional, cell-based;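 note: growth inhibition of NCI-H1770 cells determined with a viability readout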
Description: SANGER: Inhibition of human NCI-H1770 cell growth in a cell viability assay.

TE-12 = assay type: functional, cell-based;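 note: growth inhibition of TE-12 cells, read out by a cell viability assay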
Description: SANGER: Inhibition of human TE-12 cell growth in a cell viability assay.

NCI-H1395 = assay type: functional, cell-based;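 note: cell viability assay read-out quantifying reduced proliferation of human NCI-H1395 cells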
Description: SANGER: Inhibition of human NCI-H1395 cell growth in a cell viability assay.

HAL-01 = assay type: functional, cell-based;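 note: growth inhibition of human HAL-01 cells, read out with a cell viability assay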
Description: SANGER: Inhibition of human HAL-01 cell growth in a cell viability assay.

NCI-H82 = assay type: functional, cell-based;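 note: growth inhibition of NCI-H82 cells, measured with a cell viability readout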
Description: SANGER: Inhibition of human NCI-H82 cell growth in a cell viability assay.

L-428 = assay type: functional, cell-based
Description: SANGER: Inhibition of human L-428 cell growth in a cell viability assay.

SCH = assay type: functional, cell-based;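 note: growth inhibition of human SCH cells, read out in a cell viability assay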
Description: SANGER: Inhibition of human SCH cell growth in a cell viability assay.

HD-MY-Z = assay type: functional, cell-based;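 note: growth inhibition of HD-MY-Z cells, read out with a cell viability assay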
Description: SANGER: Inhibition of human HD-MY-Z cell growth in a cell viability assay.

NCI-H1092 = assay type: functional, cell-based;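 note: cell growth inhibition measured with a cell viability assay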
Description: SANGER: Inhibition of human NCI-H1092 cell growth in a cell viability assay.

RH-1 = assay type: functional, cell-based;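 note: growth inhibition of human RH-1 cells, read out with a cell viability assay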
Description: SANGER: Inhibition of human RH-1 cell growth in a cell viability assay.

LU-139 = assay type: functional, cell-based
Description: SANGER: Inhibition of human LU-139 cell growth in a cell viability assay.

COLO-824 = assay type: functional, cell-based
Description: SANGER: Inhibition of human COLO-824 cell growth in a cell viability assay.

NH-12 = assay type: functional, cell-based;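 note: growth inhibition of NH-12 cells, read out with a cell viability assay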
Description: SANGER: Inhibition of human NH-12 cell growth in a cell viability assay.

A498 = assay type: functional, cell-based;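 note: growth inhibition of human A498 cells, read out with a cell viability assay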
Description: SANGER: Inhibition of human A498 cell growth in a cell viability assay.

SNB-75 = assay type: functional, cell-based;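 note: cell viability assay measuring growth inhibition of human SNB-75 cells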
Description: SANGER: Inhibition of human SNB75 cell growth in a cell viability assay.

NCI-H23 = assay type: functional, cell-based;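 note: cell viability assay measuring growth inhibition of NCI-H23 cells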
Description: SANGER: Inhibition of human NCI-H23 cell growth in a cell viability assay.

KU812 cell line = assay type: functional, cell-based;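 note: growth inhibition of KU812 cells, read out with a cell viability assay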
Description: SANGER: Inhibition of human KU812 cell growth in a cell viability assay.

DMS-114 = assay type: functional, cell-based
DEL = assay type: functional, cell-based;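 note: growth inhibition of the human DEL cell line, read out with a cell viability assay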
Description: SANGER: Inhibition of human DEL cell growth in a cell viability assay.

DSH1 = assay type: functional, cell-based;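 note: growth inhibition of human DSH1 cells, measured with a cell viability readout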
Description: SANGER: Inhibition of human DSH1 cell growth in a cell viability assay.

OVCAR-4 = assay type: functional, cell-based;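 note: growth inhibition of human OVCAR-4 cells, measured with a cell viability assay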
Description: SANGER: Inhibition of human OVCAR-4 cell growth in a cell viability assay.

LB2518-MEL = assay type: functional, cell-based;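 note: growth inhibition of human LB2518-MEL cells, measured with a cell viability assay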
Description: SANGER: Inhibition of human LB2518-MEL cell growth in a cell viability assay.

LAMA-84 = assay type: functional, cell-based;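 note: growth inhibition of LAMA-84 cells, read out with a cell viability assay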
Description: SANGER: Inhibition of human LAMA-84 cell growth in a cell viability assay.

MFM-223 = assay type: functional, cell-based
Description: SANGER: Inhibition of human MFM-223 cell growth in a cell viability assay.

Calu-6 = assay type: functional, cell-based;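 note: growth of human Calu-6 cells, read out by a cell viability assay, IC50 marking inhibition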
Description: SANGER: Inhibition of human Calu-6 cell growth in a cell viability assay.

SK-UT-1 = assay type: functional, cell-based;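 note: growth inhibition of SK-UT-1 cells, measured by a cell viability assay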
Description: SANGER: Inhibition of human SK-UT-1 cell growth in a cell viability assay.

SW872 = assay type: functional, cell-based;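 note: growth inhibition of SW872 cells, read out by a viability assay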
Description: SANGER: Inhibition of human SW872 cell growth in a cell viability assay.

LC-2-ad = assay type: functional, cell-based;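 note: growth inhibition of human LC-2-ad cells, read out with a cell viability assay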
Description: SANGER: Inhibition of human LC-2-ad cell growth in a cell viability assay.

ETK-1 = assay type: functional, cell-based;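 note: growth inhibition of human ETK-1 cells, read out with a cell viability assay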
Description: SANGER: Inhibition of human ETK-1 cell growth in a cell viability assay.

JVM-2 = assay type: functional, cell-based;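 note: growth inhibition of JVM-2 cells determined by a cell viability assay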
Description: SANGER: Inhibition of human JVM-2 cell growth in a cell viability assay.

MPP-89 = assay type: functional, cell-based;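 note: growth inhibition of human MPP-89 cells, read out with a cell viability assay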
Description: SANGER: Inhibition of human MPP-89 cell growth in a cell viability assay.

SK-N-DZ = assay type: functional, cell-based;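 note: growth inhibition of the cancer cell line, read out through a viability assay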
Description: SANGER: Inhibition of human SK-N-DZ cell growth in a cell viability assay.

EOL1 = assay type: functional, cell-based;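 note: growth inhibition of EoL-1 cells, read out by a cell viability assay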
Description: SANGER: Inhibition of human EoL-1-cell cell growth in a cell viability assay.

NCI-H2126 = assay type: functional, cell-based;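 note: growth inhibition of the cancer cell line, determined with a cell viability readout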
Description: SANGER: Inhibition of human NCI-H2126 cell growth in a cell viability assay.

A3-KAW = assay type: functional, cell-based;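 note: growth inhibition of human A3-KAW cells, read out with a cell viability assay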
Description: SANGER: Inhibition of human A3-KAW cell growth in a cell viability assay.

CAS-1 = assay type: functional, cell-based;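 note: growth inhibition of CAS-1 cells, measured with a cell viability assay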
Description: SANGER: Inhibition of human CAS-1 cell growth in a cell viability assay.

ATN-1 = assay type: functional, cell-based;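 note: growth inhibition of human ATN-1 cells, read out with a cell viability assay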
Description: SANGER: Inhibition of human ATN-1 cell growth in a cell viability assay.

BB65-RCC = assay type: functional, cell-based;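 note: growth inhibition of the cell line, measured with a cell viability assay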
Description: SANGER: Inhibition of human BB65-RCC cell growth in a cell viability assay.

RS4-11 = assay type: functional, cell-based;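 note: growth inhibition of RS4-11 cells, read out by a cell viability assay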
Description: SANGER: Inhibition of human RS4-11 cell growth in a cell viability assay.

OCUB-M = assay type: functional, cell-based;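 note: growth inhibition of the cancer cell line, read out through a cell viability assay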
Description: SANGER: Inhibition of human OCUB-M cell growth in a cell viability assay.

OCI-AML2 = assay type: functional, cell-based;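 note: growth inhibition of OCI-AML2 cells, read out with a cell viability assay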
Description: SANGER: Inhibition of human OCI-AML2 cell growth in a cell viability assay.

RCC10RGB = assay type: functional, cell-based;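 note: growth inhibition of human RCC10RGB cells, read out by a cell viability assay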
Description: SANGER: Inhibition of human RCC10RGB cell growth in a cell viability assay.

no-10 = assay type: functional, cell-based;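 note: growth inhibition of no-10 cells, read out with a cell viability assay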
Description: SANGER: Inhibition of human no-10 cell growth in a cell viability assay.

NB13 = assay type: functional, cell-based;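 note: cell viability readout measuring growth inhibition of human NB13 cells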
Description: SANGER: Inhibition of human NB13 cell growth in a cell viability assay.

BV-173 = assay type: functional, cell-based
Description: SANGER: Inhibition of human BV-173 cell growth in a cell viability assay.

COLO-829 = assay type: functional, cell-based
Description: SANGER: Inhibition of human COLO-829 cell growth in a cell viability assay.

SHP77 = assay type: functional, cell-based, SHP-77;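 note: growth inhibition of human SHP-77 cells measured by a cell viability assay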
Description: SANGER: Inhibition of human SHP-77 cell growth in a cell viability assay.

NCI-H1304 = assay type: functional, cell-based;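 note: growth inhibition of the cancer cell line, measured in a cell viability assay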
Description: SANGER: Inhibition of human NCI-H1304 cell growth in a cell viability assay.

SK-N-FI = assay type: functional, cell-based;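 note: cell viability assay measuring growth inhibition of human SK-N-FI cells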
Description: SANGER: Inhibition of human SK-N-FI cell growth in a cell viability assay.

NCI-H226 = assay type: functional, cell-based;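 note: cell viability read-out used to gauge growth inhibition of the cells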
Description: SANGER: Inhibition of human NCI-H226 cell growth in a cell viability assay.

IST-SL1 = assay type: functional, cell-based
Description: SANGER: Inhibition of human IST-SL1 cell growth in a cell viability assay.

MZ2-MEL = assay type: functional, cell-based
Description: SANGER: Inhibition of human MZ2-MEL cell growth in a cell viability assay.

TGBC1TKB = assay type: functional, cell-based
Description: SANGER: Inhibition of human TGBC1TKB cell growth in a cell viability assay.

HT-144 = assay type: functional, cell-based
Description: SANGER: Inhibition of human HT-144 cell growth in a cell viability assay.

SW684 = assay type: functional, cell-based
Description: SANGER: Inhibition of human SW684 cell growth in a cell viability assay.

DMS-79 = assay type: functional, cell-based
Description: SANGER: Inhibition of human DMS-79 cell growth in a cell viability assay.

EW-24 = assay type: functional, cell-based
Description: SANGER: Inhibition of human EW-24 cell growth in a cell viability assay.

NCI-H510A = assay type: functional, cell-based
Description: SANGER: Inhibition of human NCI-H510A cell growth in a cell viability assay.

EC-GI-10 = assay type: functional, cell-based
Description: SANGER: Inhibition of human EC-GI-10 cell growth in a cell viability assay.

CCCS(=O)(=O)Nc1ccc(F)c(C(=O)c2c[nH]c3ncc(Cl)cc23)c1F [PLX-4720]
pIC50 (HCC1187): < 5.00 | pIC50 (GAK): < 5.00 | pIC50 (OS-RC-2): < 5.00 | pIC50 (MC116): < 5.00 | pIC50 (CTV-1): < 5.00 | pIC50 (KALS-1): < 5.00 | pIC50 (NCI-H720): < 5.00 | pIC50 (NCI-H1770): < 5.00 | pIC50 (TE-12): < 5.00 | pIC50 (NCI-H1395): < 5.00 | pIC50 (HAL-01): < 5.00 | pIC50 (NCI-H82): < 5.00 | pIC50 (L-428): < 5.00 | pIC50 (SCH): < 5.00 | pIC50 (HD-MY-Z): < 5.00 | pIC50 (NCI-H1092): < 5.00 | pIC50 (RH-1): < 5.00 | pIC50 (LU-139): < 5.00 | pIC50 (COLO-824): < 5.00 | pIC50 (NH-12): < 5.00 | pIC50 (A498): < 5.00 | pIC50 (SNB-75): < 5.00 | pIC50 (NCI-H23): < 5.00 | pIC50 (KU812 cell line): < 5.00 | pIC50 (DMS-114): < 5.00 | pIC50 (DEL): < 5.00 | pIC50 (DSH1): < 5.00 | pIC50 (OVCAR-4): < 5.00 | pIC50 (LB2518-MEL): < 5.00 | pIC50 (LAMA-84): < 5.00 | pIC50 (MFM-223): < 5.00 | pIC50 (Calu-6): < 5.00 | pIC50 (SK-UT-1): < 5.00 | pIC50 (SW872): < 5.00 | pIC50 (LC-2-ad): < 5.00 | pIC50 (ETK-1): < 5.00 | pIC50 (JVM-2): < 5.00 | pIC50 (MPP-89): < 5.00 | pIC50 (SK-N-DZ): < 5.00 | pIC50 (EOL1): 6.85 | pIC50 (NCI-H2126): < 5.00 | pIC50 (A3-KAW): < 5.00 | pIC50 (CAS-1): < 5.00 | pIC50 (ATN-1): < 5.00 | pIC50 (BB65-RCC): < 5.00 | pIC50 (RS4-11): 5.02 | pIC50 (OCUB-M): < 5.00 | pIC50 (OCI-AML2): < 5.00 | pIC50 (RCC10RGB): < 5.00 | pIC50 (no-10): < 5.00 | pIC50 (NB13): 5.35 | pIC50 (BV-173): 6.10 | pIC50 (COLO-829): 6.41 | pIC50 (SHP77): < 5.00 | pIC50 (NCI-H1304): < 5.00 | pIC50 (SK-N-FI): < 5.00 | pIC50 (NCI-H226): < 5.00 | pIC50 (IST-SL1): < 5.00 | pIC50 (MZ2-MEL): < 5.00 | pIC50 (TGBC1TKB): < 5.00 | pIC50 (HT-144): 6.44 | pIC50 (SW684): < 5.00

CC[C@@]1(O)C(=O)OCc2c1cc1n(c2=O)Cc2cc3ccccc3nc2-1 [CAMPTOTHECIN]
pIC50 (OS-RC-2): 8.00 | pIC50 (MC116): 7.80 | pIC50 (CTV-1): 9.04 | pIC50 (KALS-1): 7.16 | pIC50 (NCI-H720): 7.35 | pIC50 (HAL-01): 8.59 | pIC50 (NCI-H82): < 7.00 | pIC50 (SCH): < 7.00 | pIC50 (HD-MY-Z): 8.79 | pIC50 (NCI-H1092): 7.36 | pIC50 (RH-1): 8.41 | pIC50 (LU-139): 7.78 | pIC50 (NH-12): 8.42 | pIC50 (A498): 8.15 | pIC50 (SNB-75): 7.76 | pIC50 (DMS-79): 7.50 | pIC50 (NCI-H23): 7.39 | pIC50 (KU812 cell line): 8.08 | pIC50 (DMS-114): 7.09 | pIC50 (DEL): 9.09 | pIC50 (DSH1): 7.80 | pIC50 (LB2518-MEL): 7.06 | pIC50 (EW-24): 8.39 | pIC50 (LAMA-84): 8.15 | pIC50 (MFM-223): < 7.00 | pIC50 (SK-UT-1): 8.51 | pIC50 (SW872): 7.62 | pIC50 (LC-2-ad): 8.55 | pIC50 (ETK-1): 7.46 | pIC50 (JVM-2): < 7.00 | pIC50 (MPP-89): 7.56 | pIC50 (SK-N-DZ): 7.66 | pIC50 (EOL1): 9.57 | pIC50 (A3-KAW): 8.78 | pIC50 (ATN-1): 8.69 | pIC50 (BB65-RCC): 8.73 | pIC50 (RS4-11): 9.04 | pIC50 (OCUB-M): 7.42 | pIC50 (NCI-H510A): 8.77 | pIC50 (OCI-AML2): 9.05 | pIC50 (NB13): 7.54 | pIC50 (BV-173): 8.62 | pIC50 (COLO-829): 7.93 | pIC50 (SHP77): < 7.00 | pIC50 (NCI-H1304): 7.23 | pIC50 (EC-GI-10): 8.10 | pIC50 (NCI-H226): 7.65 | pIC50 (IST-SL1): 7.46 | pIC50 (MZ2-MEL): 7.85 | pIC50 (HT-144): 7.75 | pIC50 (SW684): < 7.00

Cc1ccc(NC(=O)c2cccc(C(C)(C)C#N)c2)cc1Nc1ccc2ncn(C)c(=O)c2c1
pIC50 (HCC1187): < 5.40 | pIC50 (OS-RC-2): < 5.40 | pIC50 (MC116): < 5.40 | pIC50 (CTV-1): 5.92 | pIC50 (KALS-1): < 5.40 | pIC50 (NCI-H720): < 5.40 | pIC50 (NCI-H1770): < 5.40 | pIC50 (TE-12): 5.88 | pIC50 (NCI-H1395): < 5.40 | pIC50 (HAL-01): < 5.40 | pIC50 (NCI-H82): < 5.40 | pIC50 (L-428): < 5.40 | pIC50 (SCH): < 5.40 | pIC50 (HD-MY-Z): 5.53 | pIC50 (NCI-H1092): < 5.40 | pIC50 (RH-1): < 5.40 | pIC50 (LU-139): < 5.40 | pIC50 (COLO-824): < 5.40 | pIC50 (NH-12): < 5.40 | pIC50 (SNB-75): < 5.40 | pIC50 (DMS-79): < 5.40 | pIC50 (NCI-H23): < 5.40 | pIC50 (KU812 cell line): < 5.40 | pIC50 (DMS-114): < 5.40 | pIC50 (DEL): < 5.40 | pIC50 (DSH1): < 5.40 | pIC50 (OVCAR-4): < 5.40 | pIC50 (LB2518-MEL): 8.32 | pIC50 (EW-24): 5.57 | pIC50 (LAMA-84): 6.72 | pIC50 (MFM-223): < 5.40 | pIC50 (Calu-6): 7.29 | pIC50 (SK-UT-1): < 5.40 | pIC50 (SW872): 7.02 | pIC50 (LC-2-ad): < 5.40 | pIC50 (ETK-1): < 5.40 | pIC50 (JVM-2): < 5.40 | pIC50 (MPP-89): < 5.40 | pIC50 (SK-N-DZ): < 5.40 | pIC50 (EOL1): < 5.40 | pIC50 (NCI-H2126): < 5.40 | pIC50 (A3-KAW): < 5.40 | pIC50 (CAS-1): < 5.40 | pIC50 (ATN-1): < 5.40 | pIC50 (BB65-RCC): < 5.40 | pIC50 (RS4-11): < 5.40 | pIC50 (OCUB-M): < 5.40 | pIC50 (NCI-H510A): < 5.40 | pIC50 (OCI-AML2): 7.77 | pIC50 (RCC10RGB): < 5.40 | pIC50 (no-10): < 5.40 | pIC50 (NB13): < 5.40 | pIC50 (BV-173): 6.16 | pIC50 (COLO-829): 7.59 | pIC50 (SHP77): < 5.40 | pIC50 (NCI-H1304): < 5.40 | pIC50 (SK-N-FI): < 5.40 | pIC50 (EC-GI-10): < 5.40 | pIC50 (NCI-H226): < 5.40 | pIC50 (IST-SL1): < 5.40 | pIC50 (MZ2-MEL): 6.10 | pIC50 (TGBC1TKB): < 5.40 | pIC50 (HT-144): 8.18 | pIC50 (SW684): < 5.40
